{"source": "PubChem BioAssay AID2060620", "about": "(Molecular Pharmacology Branch, DTP, NCI, 2025)", "tested_on": "328373-195-R-J1-PDC complex spheroids, viability % test/control", "experiment": "Anticancer human tumor 328373-195-R-J1-PDC patient-derived head and neck squamous carcinoma cell line growth inhibition [CLK]", "conditions": "for viability, T/C: stronger effect = lower value", "text": "A high-throughput screen of multi-cell type tumor spheroids was designed to identify active combinations of […] and targeted small molecules. Complex spheroids include a stromal component modeled by human endothelial cells (HUVEC) and fibroblasts modeled by human mesenchymal stem cells (MSCs). The concentration ranges selected for each drug and investigational agent were based upon clinically achievable concentrations if the clinical Cmax of the agent was known.\nCompounds. The drugs and investigational agents: cirtuvivint (SM08502; NSC835563), CC-671 (NSC850746), vemurafenib (NSC761431), tapotoclax (NSC804041), sotorasib (NSC818433), adagrasib (NSC831453), MRTX-1133 (NSC836407), BAY2416964 (NSC825713), copanlisib (NSC816437), inavolisib (NSC800729), abemaciclib (NSC768073), osimertinib (NSC779217), entinostat (NSC756642), eltanexor (KPT-8602, NSC794443), venetoclax (NSC766270), ceralasertib (NSC777638), bortezomib (NSC756655), olaparib (NSC753686), talazoparib (NSC767125), alisertib (NSC759677), peposertib (NSC802822), gemcitabine (NSC613327), 5-fluorouracil (NSC19893), SN-38 (NSC673596), oxaliplatin (NSC266046), paclitaxel (NSC125973), and doxorubicin (NSC123127), were obtained from the National Cancer Institute (NCI) Developmental Therapeutics Program Chemical Repository. The FDA-approved anticancer drug set is available from the Developmental Therapeutics Program at https://dtp.cancer.gov/organization/dscb/obtaining/available plates.htm. […] The stock solutions were prepared in dimethyl sulfoxide (DMSO, Sigma-Aldrich, St. Louis, MO, cat. D2650), except for the platinum complexes which were prepared in saline (Quality Biological, Gaithersburg, MD, cat. 114-055-101), at 800-fold the tested concentration and stored at -70 degrees C prior to their use. All drugs and investigational agents were tested over a range starting from a high concentration at or near the clinical Cmax and decreasing in half-log increments. If the clinical Cmax for an agent had not been determined, the highest concentration tested was 10 microM.\nCell Culture. All cells were maintained in an incubator at 37 degrees C and 5% CO2 with 95% humidity. The PDC lines were cultured according to standard operating procedures established by the NCI PDMR. Briefly, all PDCs were thawed and cultured in Matrigel-coated flasks prepared with a working solution of 1X Ham's F-12 nutrient mix, without supplementation (Invitrogen, Waltham, MA, cat. 11765054), 100 U/mL penicillin-streptomycin (Invitrogen, cat. 15140122), and 2.5% Matrigel (Corning Inc., Corning, NY, cat. 354248) for the first three passages. The 947758-054-R-J2-PDC line was cultured in 6B/Colon 1A media, which includes advanced DMEM/F-12 (Thermo Fisher Scientific, cat. 12634028), 10 mM HEPES (Thermo Fisher Scientific, cat. 15630080), 1X GlutaMAX supplement (Thermo Fisher Scientific, cat. 35050061), 0.1 mg/mL primocin (InvivoGen, cat. ant-pm-2), 10% defined fetal bovine serum, heat inactivated (HyClone Laboratories Inc., cat. SH30070.03HI), 1.25 mM N-Acetyl-L-cysteine (Sigma-Aldrich, cat. A9165), 10 mM nicotinamide (Sigma-Aldrich, cat. N0636), 1X B-27 supplement (Thermo Fisher Scientific, cat. 17504044), 1X N-2 supplement (Thermo Fisher Scientific, cat. 17502048), and 10 microM Y-27632 dihydrochloride (Tocris Bioscience, cat. 1254). The 876862-298-R-J1-PDC was cultured in 6E media, which includes all 6B/Colon 1A media components plus 50% L-WRN conditioned media (ATCC, cat. CRL-3276), 50 ng/mL recombinant human EGF recombinant protein (hEGF; Thermo Fisher Scientific, cat. PHG0311), 10 ng/mL recombinant human fibroblast growth factor 10 (hGFG-10; PeproTech, cat. 100-26), 1 ng/mL recombinant human fibroblast growth factor 2 (hFGF-2; PeproTech, cat. 100-18B), and 1 µM prostaglandin E2 (PGE2; Tocris, cat. 2296). The 227483-062-R1-J1-PDC line was cultured in Panc media, containing all 6E components except hFGF-2, with the addition of 500 nM SB-431542 (Selleckchem, cat. S1067) and 10 nM gastrin (Tocris, cat. 3006). […]", "note": "Several values for one entry are separate records, joined by “and”; a condition that tells them apart may be missing. Equal values may be shown once.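 Note: spheroids exposed to the agents for 7 days.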"}
{"smiles": "CC(C)CC(NC(=O)C(Cc1ccccc1)NC(=O)c1cnccn1)B(O)O", "note": "(centres undefined) + CNC(=O)c1ccc(Nc2nc(OC3CCCC3)c3c(-c4ccc5nc(C)oc5c4)c[nH]c3n2)c(OC)c1", "values": [{"measurement": "IC50", "setting": "curve of first compound, second compound 0.0316 µM", "value": 1.43, "unit": "nM"}, {"measurement": "IC50", "setting": "curve of first compound, second compound 0.1 µM", "value": "< 0.949", "unit": "nM"}, {"measurement": "IC50", "setting": "curve of first compound, second compound 0.316 µM", "value": "< 0.949", "unit": "nM"}, {"measurement": "IC50", "setting": "curve of first compound, second compound 1 µM", "value": "< 0.949", "unit": "nM"}, {"measurement": "IC50", "setting": "curve of first compound, second compound 3.16 µM", "value": "< 0.949", "unit": "nM"}, {"measurement": "IC50", "setting": "curve of first compound, second compound 10 µM", "value": "< 0.949", "unit": "nM"}, {"measurement": "viability, T/C", "setting": "second compound 0.0316 µM, first compound 0.000949 µM", "value": 75.7, "unit": "%"}, {"measurement": "viability, T/C", "setting": "second compound 0.0316 µM, first compound 0.003 µM", "value": 3.15, "unit": "%"}, {"measurement": "viability, T/C", "setting": "second compound 0.0316 µM, first compound 0.00949 µM", "value": 0.27, "unit": "%"}, {"measurement": "viability, T/C", "setting": "second compound 0.0316 µM, first compound 0.03 µM", "value": 0.18, "unit": "%"}, {"measurement": "viability, T/C", "setting": "second compound 0.0316 µM, first compound 0.0949 µM", "value": 0.2, "unit": "%"}, {"measurement": "viability, T/C", "setting": "second compound 0.0316 µM, first compound 0.3 µM", "value": 0.32, "unit": "%"}, {"measurement": "viability, T/C", "setting": "second compound 0.1 µM, first compound 0.000949 µM", "value": 12.8, "unit": "%"}, {"measurement": "viability, T/C", "setting": "second compound 0.1 µM, first compound 0.003 µM", "value": 4.91, "unit": "%"}, {"measurement": "viability, T/C", "setting": "second compound 0.1 µM, first compound 0.00949 µM", "value": 0.98, "unit": "%"}, {"measurement": "viability, T/C", "setting": "second compound 0.1 µM, first compound 0.03 µM", "value": 0.14, "unit": "%"}, {"measurement": "viability, T/C", "setting": "second compound 0.1 µM, first compound 0.0949 µM", "value": 0.16, "unit": "%"}, {"measurement": "viability, T/C", "setting": "second compound 0.1 µM, first compound 0.3 µM", "value": 1.45, "unit": "%"}, {"measurement": "viability, T/C", "setting": "second compound 0.316 µM, first compound 0.000949 µM", "value": 10.9, "unit": "%"}, {"measurement": "viability, T/C", "setting": "second compound 0.316 µM, first compound 0.003 µM", "value": 5.82, "unit": "%"}, {"measurement": "viability, T/C", "setting": "second compound 0.316 µM, first compound 0.00949 µM", "value": 0.17, "unit": "%"}, {"measurement": "viability, T/C", "setting": "second compound 0.316 µM, first compound 0.03 µM", "value": 0.11, "unit": "%"}, {"measurement": "viability, T/C", "setting": "second compound 0.316 µM, first compound 0.0949 µM", "value": 0.14, "unit": "%"}, {"measurement": "viability, T/C", "setting": "second compound 0.316 µM, first compound 0.3 µM", "value": 0.13, "unit": "%"}, {"measurement": "viability, T/C", "setting": "second compound 1 µM, first compound 0.000949 µM", "value": 9.47, "unit": "%"}, {"measurement": "viability, T/C", "setting": "second compound 1 µM, first compound 0.003 µM", "value": 4.37, "unit": "%"}, {"measurement": "viability, T/C", "setting": "second compound 1 µM, first compound 0.00949 µM", "value": 0.14, "unit": "%"}, {"measurement": "viability, T/C", "setting": "second compound 1 µM, first compound 0.03 µM", "value": 0.08, "unit": "%"}, {"measurement": "viability, T/C", "setting": "second compound 1 µM, first compound 0.0949 µM", "value": 0.12, "unit": "%"}, {"measurement": "viability, T/C", "setting": "second compound 1 µM, first compound 0.3 µM", "value": 1.52, "unit": "%"}, {"measurement": "viability, T/C", "setting": "second compound 3.16 µM, first compound 0.000949 µM", "value": 12.4, "unit": "%"}, {"measurement": "viability, T/C", "setting": "second compound 3.16 µM, first compound 0.003 µM", "value": 3.42, "unit": "%"}, {"measurement": "viability, T/C", "setting": "second compound 3.16 µM, first compound 0.00949 µM", "value": 0.15, "unit": "%"}, {"measurement": "viability, T/C", "setting": "second compound 3.16 µM, first compound 0.03 µM", "value": 0.09, "unit": "%"}, {"measurement": "viability, T/C", "setting": "second compound 3.16 µM, first compound 0.0949 µM", "value": 0.24, "unit": "%"}, {"measurement": "viability, T/C", "setting": "second compound 3.16 µM, first compound 0.3 µM", "value": 0.19, "unit": "%"}, {"measurement": "viability, T/C", "setting": "second compound 10 µM, first compound 0.000949 µM", "value": 14.2, "unit": "%"}, {"measurement": "viability, T/C", "setting": "second compound 10 µM, first compound 0.003 µM", "value": 2.54, "unit": "%"}, {"measurement": "viability, T/C", "setting": "second compound 10 µM, first compound 0.00949 µM", "value": 0.2, "unit": "%"}, {"measurement": "viability, T/C", "setting": "second compound 10 µM, first compound 0.03 µM", "value": 0.64, "unit": "%"}, {"measurement": "viability, T/C", "setting": "second compound 10 µM, first compound 0.0949 µM", "value": 0.3, "unit": "%"}, {"measurement": "viability, T/C", "setting": "second compound 10 µM, first compound 0.3 µM", "value": 0.6, "unit": "%"}]}
{"smiles": "C=C(F)C(=O)N1CCN(c2nc(OCC3CCCN3C)nc3c2CCN(c2cccc4cccc(Cl)c24)C3)CC1CC#N", "note": "(centres undefined)", "values": [{"measurement": "viability, T/C", "setting": "compound 0.0316 µM", "value": "94.1% and 94.7%"}, {"measurement": "viability, T/C", "setting": "compound 0.1 µM", "value": "89.7% and 93.1%"}, {"measurement": "viability, T/C", "setting": "compound 0.316 µM", "value": "77.7% and 114%"}, {"measurement": "viability, T/C", "setting": "compound 1 µM", "value": "90.5% and 84.6%"}, {"measurement": "viability, T/C", "setting": "compound 3.16 µM", "value": "53.7% and 59.2%"}, {"measurement": "viability, T/C", "setting": "compound 10 µM", "value": "0.17% and 3%"}, {"measurement": "IC50", "setting": "curve of compound", "value": "3420 nM and 3750 nM"}]}
